This assay addresses KAT2A (Homo sapiens, UniProt Q92830). In words: KAT2A degradation, Western Blot (Jess), MOLM-13 cells. It is filed as cell-based. On the set-up: degrader, Western blot. As to conditions: MOLM-13 cells, KAT2A, 24 h, Western Blot, vs DMSO; read-out: KAT2A MOLM-13 DC50. The procedure, abridged: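 MOLM-13 cells in RPMI 1640/20% FBS were treated with compound for 24 h at 37 °C. RIPA lysates (4 μg) were run on a capillary Western (Jess) with anti-KAT2A antibody and chemiluminescent detection. DC50 comes from percent protein reduction versus DMSO control.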
In general terms: Immunoblotting shows a protein as a band on a membrane.

Drawing on US20260306640A1, “TECHNOLOGIES TARGETING CELL STATES” (Auron Therapeutics, Inc., priority 2023, published 2026), this text covers DC50 for 50 molecules.

Each structure is given as a SMILES string.

Sequence of KAT2A (Q92830 whole entry): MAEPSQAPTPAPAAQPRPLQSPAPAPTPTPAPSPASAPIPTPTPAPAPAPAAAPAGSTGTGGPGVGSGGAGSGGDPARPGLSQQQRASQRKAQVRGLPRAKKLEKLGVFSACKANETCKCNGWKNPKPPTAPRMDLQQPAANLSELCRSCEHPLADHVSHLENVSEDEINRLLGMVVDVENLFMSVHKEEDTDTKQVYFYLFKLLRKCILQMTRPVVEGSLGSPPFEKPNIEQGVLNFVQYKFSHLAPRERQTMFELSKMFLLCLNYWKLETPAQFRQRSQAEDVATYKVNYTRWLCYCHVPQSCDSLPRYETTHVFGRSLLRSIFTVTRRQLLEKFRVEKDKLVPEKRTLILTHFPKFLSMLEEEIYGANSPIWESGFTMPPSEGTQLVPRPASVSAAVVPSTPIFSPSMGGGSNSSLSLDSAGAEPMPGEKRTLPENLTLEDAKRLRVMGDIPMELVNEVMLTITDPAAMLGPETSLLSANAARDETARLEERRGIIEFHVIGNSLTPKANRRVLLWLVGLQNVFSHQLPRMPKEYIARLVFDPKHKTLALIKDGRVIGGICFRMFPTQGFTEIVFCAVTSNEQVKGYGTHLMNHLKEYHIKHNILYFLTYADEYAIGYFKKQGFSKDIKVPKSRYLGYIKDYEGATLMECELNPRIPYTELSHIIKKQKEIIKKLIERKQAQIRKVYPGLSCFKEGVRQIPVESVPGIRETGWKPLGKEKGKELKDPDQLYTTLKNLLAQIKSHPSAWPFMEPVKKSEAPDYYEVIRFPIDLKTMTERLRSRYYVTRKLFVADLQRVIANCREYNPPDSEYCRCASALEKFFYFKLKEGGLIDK

By DC50 is commonly meant the concentration at which degradation of the target reaches its halfway point. With `Cc1ccc(OC2CCN(C(=O)c3ccc([C@H]4C[C@@H](Nc5cnn(C)c(=O)c5Br)CN(C)C4)cc3)CC2)cc1C1CCC(=O)NC1=O` (some centres unmarked) [Compound 121], the DC50 is 1 to 30 nM.

For the molecule `Cc1ccc(OC2CCN(Cc3ccc([C@H]4C[C@@H](Nc5cnn(C)c(=O)c5Br)CN(C)C4)cc3)CC2)cc1C1CCC(=O)NC1=O` (some centres unmarked) [Compound 122], the DC50 was in the range of 1 to 30 nM.

With `CN1C[C@H](Nc2cnn(C)c(=O)c2Br)C[C@H](c2ccc(CN3CCC4(CC3)CN(c3cccc(C5CCC(=O)NC5=O)c3)C4)cc2)C1` (some centres unmarked) [Compound 127], the DC50 lay in the range of 1 to 30 nM.

In the case of `CN1C[C@H](Nc2cnn(C)c(=O)c2Br)C[C@H](c2ccc(C(=O)N3CCC4(CC3)CN(c3cccc(C5CCC(=O)NC5=O)c3)C4)cc2)C1` (some centres unmarked) [Compound 128], the DC50 is 1 to 30 nM.

On to `CN1C[C@H](Nc2cnn(C)c(=O)c2C2CC2)C[C@H](c2ccc(CN3CCC(c4ccc5c(c4)CN(C4CCC(=O)NC4=O)C5=O)CC3)cc2)C1` (some centres unmarked) [Compound 129], for which the DC50 was in the range of 1 to 30 nM.

As for `CN1C[C@H](Nc2cnn(C)c(=O)c2Br)C[C@H](c2ccc(CN3CCC(c4ccc5c(c4)C(=O)N(C4CCC(=O)NC4=O)C5=O)C3)cc2)C1` (some centres unmarked) [Compound 130], the DC50 fell in the range of 1 to 30 nM.

As for `CN1C[C@H](Nc2cnn(C)c(=O)c2Br)C[C@H](c2ccc(C(=O)N3CCC(Oc4ccc(F)c(C5CCC(=O)NC5=O)c4)CC3)cc2)C1` (some centres unmarked) [Compound 131], the DC50 was 1 to 30 nM.

Consider `CN1C[C@H](Nc2cnn(C)c(=O)c2Br)C[C@H](c2ccc(CN3CCC(Oc4ccc(F)c(C5CCC(=O)NC5=O)c4)CC3)cc2)C1` (some centres unmarked) [Compound 132], for which the DC50 was less than 1 nM.

For the molecule `CN1C[C@H](Nc2cnn(C)c(=O)c2Br)C[C@H](c2ccc(CN3CCC4(CC3)CN(c3ccc(C5CCC(=O)NC5=O)cc3)C4)cc2)C1` (some centres unmarked) [Compound 133], the DC50 was 1 to 30 nM.

As for `CN1C[C@H](Nc2cnn(C)c(=O)c2Br)C[C@H](c2ccc(CN3CCC4(CC3)CCN(c3cccc(C5CCC(=O)NC5=O)c3)CC4)cc2)C1` (some centres unmarked) [Compound 134], the DC50 was less than 1 nM.

With `CN1C[C@H](Nc2cnn(C)c(=O)c2Br)C[C@H](c2ccc(C(=O)N3CCC4(CC3)CCN(c3cccc(C5CCC(=O)NC5=O)c3)CC4)cc2)C1` (some centres unmarked) [Compound 135], the DC50 was less than 1 nM.

Turning to `CN1C[C@H](Nc2cnn(C)c(=O)c2Br)C[C@H](c2ccc(C(=O)N3CCC(c4ccc(CN5CCC(=O)NC5=O)cc4)CC3)cc2)C1` [Compound 136], the DC50 was greater than 30 nM.

In the case of `CN1C[C@H](Nc2cnn(C)c(=O)c2Br)C[C@H](c2ccc(C(=O)N3CCN(c4ccc5c(c4)n(C)c(=O)n5C4CCC(=O)NC4=O)CC3)cc2)C1` (some centres unmarked) [Compound 137], the DC50 is 1 to 30 nM.

With `CN1C[C@H](Nc2cnn(C)c(=O)c2Br)C[C@H](c2ccc(C(=O)N3CC(c4ccc5c(c4)CN(C4CCC(=O)NC4=O)C5=O)C3)cc2)C1` (some centres unmarked) [Compound 138], the DC50 was less than 1 nM.

In the case of `CN1C[C@H](Nc2cnn(C)c(=O)c2Br)C[C@H](c2ccc(CN3CC(c4ccc5c(c4)CN(C4CCC(=O)NC4=O)C5=O)C3)cc2)C1` (some centres unmarked) [Compound 139], the DC50 was less than 1 nM.

With `CN1C[C@H](Nc2cnn(C)c(=O)c2Br)C[C@H](c2ccc(C(=O)N3CCC(c4cccc(CN5CCC(=O)NC5=O)c4)CC3)cc2)C1` [Compound 140], the DC50 is greater than 30 nM.

Consider `CN1C[C@H](Nc2cnn(C)c(=O)c2Cl)C[C@H](c2ccc(CN3CC(c4ccc5c(c4)CN(C4CCC(=O)NC4=O)C5=O)C3)cc2)C1` (some centres unmarked) [Compound 141], for which the DC50 is less than 1 nM.

Consider `CN1C[C@H](Nc2cnn(C)c(=O)c2Br)C[C@H](c2ccc(C(=O)N3CCN(c4cccc5c4n(C)c(=O)n5C4CCC(=O)NC4=O)CC3)cc2)C1` (some centres unmarked) [Compound 142], for which the DC50 lay within 1 to 30 nM.

`CN1C[C@H](Nc2cnn(C)c(=O)c2Br)C[C@H](c2ccc(C(=O)N3CCN(c4ccc(F)c(C5CCC(=O)NC5=O)c4)CC3)cc2)C1` (some centres unmarked) [Compound 143]: the DC50 is less than 1 nM.

As to `CN1C[C@H](Nc2cnn(C)c(=O)c2Br)C[C@H](c2ccc(C(=O)N3CC4(CCN(c5ccc(C6CCC(=O)NC6=O)cc5)CC4)C3)cc2)C1` (some centres unmarked) [Compound 144], the DC50 was less than 1 nM.

On to `CN1C[C@H](Nc2cnn(C)c(=O)c2Br)C[C@H](c2ccc(C(=O)N3CC4(C3)CN(c3ccc(C5CCC(=O)NC5=O)cc3)C4)cc2)C1` (some centres unmarked) [Compound 147], for which the half-maximal degradation concentration (DC50) lay within 1 to 30 nM.

With `CN1C[C@H](Nc2cnn(C)c(=O)c2Br)C[C@H](c2ccc(C(=O)N3CC4(C3)CN(c3cccc(C5CCC(=O)NC5=O)c3)C4)cc2)C1` (some centres unmarked) [Compound 148], the half-maximal degradation concentration (DC50) was 1 to 30 nM.

For `CN1C[C@H](Nc2cnn(C)c(=O)c2Br)C[C@H](c2ccc(C(=O)N3CCN(C4CCN(C5CCC(=O)NC5=O)CC4)CC3)cc2)C1` (some centres unmarked) [Compound 149], the DC50 fell in the range of 1 to 30 nM.

Consider `Cc1c(N[C@@H]2C[C@H](c3ccc(CN4CCC(c5ccc6c(c5)CN(C5CCC(=O)NC5=O)C6=O)CC4)cc3)CN(C)C2)cnn(C)c1=O` (some centres unmarked) [Compound 150], for which the DC50 is less than 1 nM.

As to `CN1C[C@H](Nc2cnn(C)c(=O)c2Br)C[C@H](c2ccc(COc3ccc(C4CCC(=O)NC4=O)cc3)cc2)C1` (some centres unmarked) [Compound 151], the 50% degradation concentration (DC50) lay within 1 to 30 nM.

In the case of `CN1C[C@H](Nc2cnn(C)c(=O)c2Br)C[C@H](c2ccc(C(=O)N3CCN(c4ccc(F)c(C5CCC(=O)NC5=O)c4)CC3)cc2)C1` (some centres unmarked) [Compound 153], the DC50 lay within 1 to 30 nM.

With `CN1C[C@H](Nc2cnn(C)c(=O)c2Br)C[C@H](c2ccc(CN3CC4(CCN(c5ccc(C6CCC(=O)NC6=O)cc5)CC4)C3)cc2)C1` (some centres unmarked) [Compound 154], the DC50 is less than 1 nM.

In the case of `CN1C[C@H](Nc2cnn(C)c(=O)c2Br)C[C@H](c2ccc(CN3CCC4(CC3)CCN(c3ccc(C5CCC(=O)NC5=O)c(F)c3)CC4)cc2)C1` (some centres unmarked) [Compound 156], the DC50 was less than 1 nM.

For the molecule `CN1C[C@H](Nc2cnn(C)c(=O)c2Br)C[C@H](c2ccc(CN3CCC4(CC3)CCN(c3ccc(C5CCC(=O)NC5=O)cc3F)CC4)cc2)C1` (some centres unmarked) [Compound 158], the DC50 was less than 1 nM.

`CN1C[C@H](Nc2cnn(C)c(=O)c2Br)C[C@H](c2ccc(CN3CC4(C3)CN(c3ccc(C5CCC(=O)NC5=O)cc3)C4)cc2)C1` (some centres unmarked) [Compound 159]: the DC50 was 1 to 30 nM.

As for `CN1C[C@H](Nc2cnn(C)c(=O)c2Br)C[C@H](c2ccc(CN3CC4(C3)CN(c3cccc(C5CCC(=O)NC5=O)c3)C4)cc2)C1` (some centres unmarked) [Compound 160], the DC50 is greater than 30 nM.

As for `CN1C[C@H](Nc2cnn(C)c(=O)c2Br)C[C@H](c2ccc(C(=O)N3CCC(N4CCN(C5CCC(=O)NC5=O)CC4)CC3)cc2)C1` (some centres unmarked) [Compound 161], the DC50 was greater than 30 nM.

With `CN1C[C@H](Nc2cnn(C)c(=O)c2Cl)C[C@H](c2ccc(C(=O)N3CCC4(CC3)CCN(c3cccc(C5CCC(=O)NC5=O)c3)CC4)cc2)C1` (some centres unmarked) [Compound 163], the 50% degradation concentration (DC50) was less than 1 nM.

Turning to `CN1C[C@H](Nc2cnn(C)c(=O)c2Cl)C[C@H](c2ccc(CN3Cc4cc5c(cc4C3)C(=O)N(C3CCC(=O)NC3=O)C5=O)cc2)C1` (some centres unmarked) [Compound 164], the 50% degradation concentration (DC50) lay within 1 to 30 nM.

As for `Cc1ccc(N2CCN(Cc3ccc([C@H]4C[C@@H](Nc5cnn(C)c(=O)c5Br)CN(C)C4)cc3)CC2)cc1C1CCC(=O)NC1=O` (some centres unmarked) [Compound 165], the DC50 was less than 1 nM.

Turning to `Cc1cc(N2CCC3(CCN(Cc4ccc([C@H]5C[C@@H](Nc6cnn(C)c(=O)c6Br)CN(C)C5)cc4)CC3)CC2)ccc1C1CCC(=O)NC1=O` (some centres unmarked) [Compound 166], the half-maximal degradation concentration (DC50) is less than 1 nM.

Consider `CN1C[C@H](Nc2cnn(C)c(=O)c2Br)C[C@H](c2ccc(C(=O)N3CCC4(CC3)CCN(c3ccc(F)c(C5CCC(=O)NC5=O)c3)CC4)cc2)C1` (some centres unmarked) [Compound 169], for which the DC50 was less than 1 nM.

Consider `CN1C[C@H](Nc2cnn(C)c(=O)c2Cl)C[C@H](c2ccc(CN3CCC4(CC3)CCN(c3cccc(C5CCC(=O)NC5=O)c3)CC4)cc2)C1` (some centres unmarked) [Compound 170], for which the DC50 is less than 1 nM.

Take `C#Cc1c(N[C@@H]2C[C@H](c3ccc(CN4CCC(c5ccc6c(c5)CN(C5CCC(=O)NC5=O)C6=O)CC4)cc3)CN(C)C2)cnn(C)c1=O` (some centres unmarked) [Compound 171]: the 50% degradation concentration (DC50) was greater than 30 nM.

With `CN1C[C@H](Nc2cnn(C)c(=O)c2Br)C[C@H](c2ccc(C(=O)N3CCC(c4ccc5c(c4)CN(C4CCC(=O)NC4=O)C5=O)CC3)cc2)C1` (some centres unmarked) [Compound 172], the DC50 fell in the range of 1 to 30 nM.

For `CN1C[C@H](Nc2cnn(C)c(=O)c2Br)C[C@H](c2ccc(CN3CCC(c4ccc(OC5CCC(=O)NC5=O)cc4)CC3)cc2)C1` (some centres unmarked) [Compound 173], the DC50 lay in the range of 1 to 30 nM.

Take `CN1C[C@H](Nc2cnn(C)c(=O)c2Br)C[C@H](c2ccc(CN3CCC4(CC3)CCN(c3ccc(F)c(C5CCC(=O)NC5=O)c3)CC4)cc2)C1` (some centres unmarked) [Compound 174]: the DC50 was less than 1 nM.

`CN1C[C@H](Nc2cnn(C)c(=O)c2Cl)C[C@H](c2ccc(C(=O)N3CCN(c4ccc5c(c4)C(=O)N(C4CCC(=O)NC4=O)C5=O)CC3)cc2)C1` (some centres unmarked) [Compound 176]: the DC50 was less than 1 nM.

As to `CN1C[C@H](Nc2cnn(C)c(=O)c2Br)C[C@H](c2ccc(C(=O)N3CCN(CC4CCN(C5CCC(=O)NC5=O)CC4)CC3)cc2)C1` (some centres unmarked) [Compound 177], the DC50 was greater than 30 nM.

On to `Cc1ccc(N2CCC3(CCN(Cc4ccc([C@H]5C[C@@H](Nc6cnn(C)c(=O)c6Br)CN(C)C5)cc4)CC3)CC2)cc1C1CCC(=O)NC1=O` (some centres unmarked) [Compound 178], for which the DC50 lay in the range of 1 to 30 nM.

Consider `Cc1ccc(N2CCC3(CCN(C(=O)c4ccc([C@H]5C[C@@H](Nc6cnn(C)c(=O)c6Br)CN(C)C5)cc4)CC3)CC2)cc1C1CCC(=O)NC1=O` (some centres unmarked) [Compound 179], for which the DC50 is less than 1 nM.

Turning to `CN1C[C@H](Nc2cnn(C)c(=O)c2Br)C[C@H](c2ccc(CN3CCN(c4ccc5c(c4)oc(=O)n5C4CCC(=O)NC4=O)CC3)cc2)C1` (some centres unmarked) [Compound 180], the 50% degradation concentration (DC50) was less than 1 nM.

On to `CN1C[C@H](Nc2cnn(C)c(=O)c2Br)C[C@H](c2ccc(C(=O)N3CCN(c4ccc5c(c4)oc(=O)n5C4CCC(=O)NC4=O)CC3)cc2)C1` (some centres unmarked) [Compound 181], for which the half-maximal degradation concentration (DC50) lay within 1 to 30 nM.

With `CN1C[C@H](Nc2cnn(C)c(=O)c2Br)C[C@H](c2ccc(CN3CC(Oc4ccc(C5CCC(=O)NC5=O)cc4)C3)cc2)C1` (some centres unmarked) [Compound 182], the DC50 is less than 1 nM.

Turning to `CN1C[C@H](Nc2cnn(C)c(=O)c2Br)C[C@H](c2ccc(C(=O)N3CC(Oc4ccc(C5CCC(=O)NC5=O)cc4)C3)cc2)C1` (some centres unmarked) [Compound 183], the DC50 was 1 to 30 nM.
